Data taken from ChEMBL document CHEMBL1131630, “(Z,Z)-2,7-Bis(4-amidinobenzylidene)cycloheptan-1-one: identification of a highly active inhibitor of blood coagulation factor Xa” (J Med Chem, 1998).

How the values were obtained:
Serine protease 1 = molecular target: T1, Serine protease 1 (Bos taurus, UniProt P00760); assay: Compound (isomer) was tested in the absence of light for inhibitory activity against trypsin.
T1 sequence (P00760 whole entry): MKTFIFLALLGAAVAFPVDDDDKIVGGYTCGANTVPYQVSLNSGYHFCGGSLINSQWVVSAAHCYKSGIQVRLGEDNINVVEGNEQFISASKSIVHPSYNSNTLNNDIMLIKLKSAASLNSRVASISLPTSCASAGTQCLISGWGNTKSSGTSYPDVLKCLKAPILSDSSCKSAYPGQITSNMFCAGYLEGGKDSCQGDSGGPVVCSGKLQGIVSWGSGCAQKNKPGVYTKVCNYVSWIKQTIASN

Coagulation factor X = Coagulation factor X (Homo sapiens, UniProt P00742); assay: Compound (isomer) was tested in the absence of light for inhibitory activity against Human Coagulation factor X
Sequence of Coagulation factor X (P00742 41-179 limits assumed): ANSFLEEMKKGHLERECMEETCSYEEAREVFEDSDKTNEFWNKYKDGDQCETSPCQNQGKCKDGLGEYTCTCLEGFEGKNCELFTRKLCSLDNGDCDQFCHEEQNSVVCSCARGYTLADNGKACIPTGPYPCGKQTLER
Sequence of Coagulation factor X (P00742 235-488 limits assumed): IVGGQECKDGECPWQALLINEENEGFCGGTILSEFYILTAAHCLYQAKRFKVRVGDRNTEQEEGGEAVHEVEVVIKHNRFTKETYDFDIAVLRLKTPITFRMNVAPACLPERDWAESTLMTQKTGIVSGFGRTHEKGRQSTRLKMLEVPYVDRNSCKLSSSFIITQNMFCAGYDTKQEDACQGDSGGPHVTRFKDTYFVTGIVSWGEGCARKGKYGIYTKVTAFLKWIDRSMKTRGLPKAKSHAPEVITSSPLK

Prothrombin = Prothrombin (Homo sapiens, UniProt P00734); assay: Compound (isomer) was tested in the absence of light for inhibitory activity against thrombin.

Row | Compound | Ki (Serine protease 1) | Ki (Coagulation factor X) | Ki (Prothrombin)
1 | N=C(N)c1ccc(/C=C2\CCCC/C(=C\c3ccc(C(=N)N)cc3)C2=O)cc1 | 280 nM | 17000 nM | –
2 | N=C(N)c1ccc(/C=C2/CCCC/C(=C\c3ccc(C(=N)N)cc3)C2=O)cc1 | 29 nM | – | 130 nM
